Among the data in ChEMBL document CHEMBL5678818, “Discovery of potent SOS1 inhibitors that block RAS activation via disruption of the RAS-SOS1 interaction” (Proc Natl Acad Sci U S A, 2019) are Activity values, retold here.

For assay [1], the system named is Phosphatidylinositol 4,5-bisphosphate 3-kinase catalytic subunit alpha isoform (Homo sapiens), P42336 [Q546K]. Nature of the assay: Inhibition of PIK3CA Q546K mutant (unknown origin) assessed as residual activity at 100 nM by KINOMEscan analysis relative to control.
Phosphatidylinositol 4,5-bisphosphate 3-kinase catalytic subunit alpha isoform (Homo sapiens), P42336 [Q546K], sequence (P42336 whole entry Q546K, canonical isoform): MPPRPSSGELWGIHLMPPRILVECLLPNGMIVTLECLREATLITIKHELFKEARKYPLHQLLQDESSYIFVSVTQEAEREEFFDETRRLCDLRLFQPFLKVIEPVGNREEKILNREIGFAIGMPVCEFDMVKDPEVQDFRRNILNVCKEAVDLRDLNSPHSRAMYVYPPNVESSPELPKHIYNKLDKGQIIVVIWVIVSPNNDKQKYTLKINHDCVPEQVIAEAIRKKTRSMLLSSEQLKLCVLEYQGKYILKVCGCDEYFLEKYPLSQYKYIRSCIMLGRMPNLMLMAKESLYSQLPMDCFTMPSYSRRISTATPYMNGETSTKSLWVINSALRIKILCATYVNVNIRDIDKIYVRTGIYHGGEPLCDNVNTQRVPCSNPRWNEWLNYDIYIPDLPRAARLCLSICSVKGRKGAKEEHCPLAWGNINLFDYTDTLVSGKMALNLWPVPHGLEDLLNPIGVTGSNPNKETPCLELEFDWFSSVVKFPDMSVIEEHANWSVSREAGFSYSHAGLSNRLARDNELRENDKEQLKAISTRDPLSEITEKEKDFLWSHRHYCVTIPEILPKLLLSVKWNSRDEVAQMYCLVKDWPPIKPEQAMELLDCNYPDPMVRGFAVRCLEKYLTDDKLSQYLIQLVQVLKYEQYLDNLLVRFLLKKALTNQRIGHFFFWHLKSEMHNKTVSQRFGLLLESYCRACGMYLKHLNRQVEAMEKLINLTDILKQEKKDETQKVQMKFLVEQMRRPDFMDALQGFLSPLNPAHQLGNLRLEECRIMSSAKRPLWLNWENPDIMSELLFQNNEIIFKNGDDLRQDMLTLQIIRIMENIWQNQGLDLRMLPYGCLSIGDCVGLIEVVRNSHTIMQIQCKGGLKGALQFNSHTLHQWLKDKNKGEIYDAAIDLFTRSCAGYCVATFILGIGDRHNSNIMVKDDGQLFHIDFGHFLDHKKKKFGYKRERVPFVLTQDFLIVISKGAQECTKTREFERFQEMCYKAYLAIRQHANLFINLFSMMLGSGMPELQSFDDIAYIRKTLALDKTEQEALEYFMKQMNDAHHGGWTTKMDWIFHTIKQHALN
Assay [2] concerns the target Mitogen-activated protein kinase kinase kinase 14 (Homo sapiens) (UniProt Q99558). Nature of the assay: Inhibition of NIK (unknown origin) assessed as residual activity at 100 nM by KINOMEscan analysis relative to control.
Assay [3] deals with Serine/threonine-protein kinase 26 (Homo sapiens) (UniProt Q9P289). Nature of the assay: Inhibition of MST4 (unknown origin) assessed as residual activity at 100 nM by KINOMEscan analysis relative to control.
In assay [4] the test system is Proto-oncogene tyrosine-protein kinase receptor Ret (Homo sapiens), P07949 [V804L]. Nature of the assay: Inhibition of RET V804L mutant (unknown origin) assessed as residual activity at 100 nM by KINOMEscan analysis relative to control.
Proto-oncogene tyrosine-protein kinase receptor Ret (Homo sapiens), P07949 [V804L], sequence (P07949 whole entry V804L): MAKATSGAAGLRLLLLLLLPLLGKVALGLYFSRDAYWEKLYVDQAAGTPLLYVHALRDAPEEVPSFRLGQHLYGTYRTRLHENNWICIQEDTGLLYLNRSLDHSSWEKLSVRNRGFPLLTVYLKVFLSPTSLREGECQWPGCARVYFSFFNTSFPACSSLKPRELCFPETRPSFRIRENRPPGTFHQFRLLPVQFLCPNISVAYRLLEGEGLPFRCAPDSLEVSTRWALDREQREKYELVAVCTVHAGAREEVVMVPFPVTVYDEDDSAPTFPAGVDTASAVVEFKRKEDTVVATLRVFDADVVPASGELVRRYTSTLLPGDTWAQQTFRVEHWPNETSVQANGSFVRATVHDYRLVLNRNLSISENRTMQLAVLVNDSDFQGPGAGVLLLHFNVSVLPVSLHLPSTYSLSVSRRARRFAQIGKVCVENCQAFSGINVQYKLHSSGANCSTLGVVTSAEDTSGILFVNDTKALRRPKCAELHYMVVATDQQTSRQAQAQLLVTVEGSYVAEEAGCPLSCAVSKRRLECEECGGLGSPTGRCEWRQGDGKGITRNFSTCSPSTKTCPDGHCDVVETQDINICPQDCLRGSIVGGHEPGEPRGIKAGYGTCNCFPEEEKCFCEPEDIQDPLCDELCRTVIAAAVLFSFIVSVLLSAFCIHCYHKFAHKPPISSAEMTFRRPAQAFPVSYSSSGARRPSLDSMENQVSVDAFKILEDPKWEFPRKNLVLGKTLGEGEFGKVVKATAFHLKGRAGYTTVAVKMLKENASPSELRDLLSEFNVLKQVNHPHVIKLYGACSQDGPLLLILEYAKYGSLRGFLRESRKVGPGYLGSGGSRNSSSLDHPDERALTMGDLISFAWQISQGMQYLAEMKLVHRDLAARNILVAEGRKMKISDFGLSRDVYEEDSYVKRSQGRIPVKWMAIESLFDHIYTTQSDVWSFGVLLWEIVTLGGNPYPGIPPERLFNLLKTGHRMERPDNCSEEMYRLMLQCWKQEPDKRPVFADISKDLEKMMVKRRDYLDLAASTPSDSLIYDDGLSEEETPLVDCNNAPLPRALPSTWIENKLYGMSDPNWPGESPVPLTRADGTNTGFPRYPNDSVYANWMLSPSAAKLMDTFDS
Assay [5] has as its target Serine/threonine-protein kinase PLK1 (Homo sapiens) (UniProt P53350). Nature of the assay: Inhibition of PLK1 (unknown origin) assessed as residual activity at 100 nM by KINOMEscan analysis relative to control.
In assay [6] the target is Mitogen-activated protein kinase 6 (Homo sapiens) (UniProt Q16659). Nature of the assay: Inhibition of ERK3 (unknown origin) assessed as residual activity at 100 nM by KINOMEscan analysis relative to control.
Mitogen-activated protein kinase 6 (Homo sapiens), sequence (Q16659 whole entry): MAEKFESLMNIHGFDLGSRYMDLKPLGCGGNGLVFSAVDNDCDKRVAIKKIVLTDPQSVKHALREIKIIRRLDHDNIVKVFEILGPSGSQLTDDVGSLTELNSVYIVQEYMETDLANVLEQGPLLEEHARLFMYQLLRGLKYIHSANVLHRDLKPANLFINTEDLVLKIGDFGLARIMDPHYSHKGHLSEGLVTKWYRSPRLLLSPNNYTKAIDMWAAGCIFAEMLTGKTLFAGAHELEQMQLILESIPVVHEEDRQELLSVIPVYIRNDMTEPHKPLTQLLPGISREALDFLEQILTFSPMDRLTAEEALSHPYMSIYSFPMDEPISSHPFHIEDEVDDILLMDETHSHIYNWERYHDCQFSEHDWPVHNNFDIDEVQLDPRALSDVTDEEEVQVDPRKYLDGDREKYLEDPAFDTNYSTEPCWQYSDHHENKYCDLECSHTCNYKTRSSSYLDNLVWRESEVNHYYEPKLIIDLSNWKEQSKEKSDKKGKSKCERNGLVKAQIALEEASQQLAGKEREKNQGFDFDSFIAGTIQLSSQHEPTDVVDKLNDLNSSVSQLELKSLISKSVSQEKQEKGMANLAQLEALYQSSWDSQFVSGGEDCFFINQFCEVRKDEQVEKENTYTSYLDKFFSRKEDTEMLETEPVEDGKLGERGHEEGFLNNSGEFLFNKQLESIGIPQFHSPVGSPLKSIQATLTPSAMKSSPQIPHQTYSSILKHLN
Assay [7] relates to Tyrosine-protein kinase ABL1 (Homo sapiens), P00519 [H396P]. Nature of the assay: Inhibition of phosphorylated ABL1 H396P mutant (unknown origin) assessed as residual activity at 100 nM by KINOMEscan analysis relative to control.
For assay [8], the target named is T1, Ephrin type-A receptor 1 (Homo sapiens) (UniProt P21709).
T1 sequence (whole entry): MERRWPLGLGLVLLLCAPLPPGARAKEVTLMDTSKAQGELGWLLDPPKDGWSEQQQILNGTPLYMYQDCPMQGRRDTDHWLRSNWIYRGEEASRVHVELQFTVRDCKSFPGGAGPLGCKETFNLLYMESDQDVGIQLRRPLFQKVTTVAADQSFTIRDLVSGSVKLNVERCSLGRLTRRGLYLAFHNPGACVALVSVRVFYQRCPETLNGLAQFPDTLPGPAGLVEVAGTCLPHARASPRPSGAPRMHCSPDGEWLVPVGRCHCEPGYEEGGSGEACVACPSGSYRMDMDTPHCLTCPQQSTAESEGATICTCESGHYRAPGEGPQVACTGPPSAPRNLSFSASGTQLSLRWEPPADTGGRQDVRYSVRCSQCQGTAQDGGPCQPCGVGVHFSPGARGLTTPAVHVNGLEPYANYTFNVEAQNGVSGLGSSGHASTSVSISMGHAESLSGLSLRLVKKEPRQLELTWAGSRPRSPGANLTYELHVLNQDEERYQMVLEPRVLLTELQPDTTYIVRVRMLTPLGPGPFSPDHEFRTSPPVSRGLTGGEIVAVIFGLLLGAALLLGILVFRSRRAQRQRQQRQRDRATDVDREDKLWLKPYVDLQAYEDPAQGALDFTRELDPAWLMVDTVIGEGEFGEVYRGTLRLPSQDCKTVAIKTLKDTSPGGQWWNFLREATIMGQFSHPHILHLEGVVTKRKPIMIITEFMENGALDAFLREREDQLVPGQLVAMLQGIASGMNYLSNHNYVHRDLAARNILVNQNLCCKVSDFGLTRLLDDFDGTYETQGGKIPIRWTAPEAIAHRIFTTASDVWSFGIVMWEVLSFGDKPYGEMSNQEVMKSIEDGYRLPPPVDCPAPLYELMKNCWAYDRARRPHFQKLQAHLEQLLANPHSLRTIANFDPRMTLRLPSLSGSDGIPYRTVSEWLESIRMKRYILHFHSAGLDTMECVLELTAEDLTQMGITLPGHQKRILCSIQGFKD
Nature of the assay: Inhibition of EPHA1 (unknown origin) assessed as residual activity at 100 nM by KINOMEscan analysis relative to control.

The target of assay [9] is Glycogen synthase kinase-3 beta (Homo sapiens) (UniProt P49841). Nature of the assay: Inhibition of GSK3B (unknown origin) assessed as residual activity at 100 nM by KINOMEscan analysis relative to control.
Glycogen synthase kinase-3 beta (Homo sapiens), sequence (P49841 whole entry, looked up): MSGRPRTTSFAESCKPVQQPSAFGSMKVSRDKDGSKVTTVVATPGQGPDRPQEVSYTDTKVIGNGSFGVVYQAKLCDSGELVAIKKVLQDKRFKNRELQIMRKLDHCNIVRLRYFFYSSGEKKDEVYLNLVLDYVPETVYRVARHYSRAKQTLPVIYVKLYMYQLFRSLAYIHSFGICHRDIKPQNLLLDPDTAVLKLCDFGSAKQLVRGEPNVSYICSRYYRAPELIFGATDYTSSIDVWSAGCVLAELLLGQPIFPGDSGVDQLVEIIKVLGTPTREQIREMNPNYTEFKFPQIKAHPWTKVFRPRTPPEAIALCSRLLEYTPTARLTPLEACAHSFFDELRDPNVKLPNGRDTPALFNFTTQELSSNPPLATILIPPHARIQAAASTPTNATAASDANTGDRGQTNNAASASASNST
Assay [10] concerns the target T2, Serine/threonine-protein kinase ULK1 (Homo sapiens) (UniProt O75385).
T2 sequence (whole entry): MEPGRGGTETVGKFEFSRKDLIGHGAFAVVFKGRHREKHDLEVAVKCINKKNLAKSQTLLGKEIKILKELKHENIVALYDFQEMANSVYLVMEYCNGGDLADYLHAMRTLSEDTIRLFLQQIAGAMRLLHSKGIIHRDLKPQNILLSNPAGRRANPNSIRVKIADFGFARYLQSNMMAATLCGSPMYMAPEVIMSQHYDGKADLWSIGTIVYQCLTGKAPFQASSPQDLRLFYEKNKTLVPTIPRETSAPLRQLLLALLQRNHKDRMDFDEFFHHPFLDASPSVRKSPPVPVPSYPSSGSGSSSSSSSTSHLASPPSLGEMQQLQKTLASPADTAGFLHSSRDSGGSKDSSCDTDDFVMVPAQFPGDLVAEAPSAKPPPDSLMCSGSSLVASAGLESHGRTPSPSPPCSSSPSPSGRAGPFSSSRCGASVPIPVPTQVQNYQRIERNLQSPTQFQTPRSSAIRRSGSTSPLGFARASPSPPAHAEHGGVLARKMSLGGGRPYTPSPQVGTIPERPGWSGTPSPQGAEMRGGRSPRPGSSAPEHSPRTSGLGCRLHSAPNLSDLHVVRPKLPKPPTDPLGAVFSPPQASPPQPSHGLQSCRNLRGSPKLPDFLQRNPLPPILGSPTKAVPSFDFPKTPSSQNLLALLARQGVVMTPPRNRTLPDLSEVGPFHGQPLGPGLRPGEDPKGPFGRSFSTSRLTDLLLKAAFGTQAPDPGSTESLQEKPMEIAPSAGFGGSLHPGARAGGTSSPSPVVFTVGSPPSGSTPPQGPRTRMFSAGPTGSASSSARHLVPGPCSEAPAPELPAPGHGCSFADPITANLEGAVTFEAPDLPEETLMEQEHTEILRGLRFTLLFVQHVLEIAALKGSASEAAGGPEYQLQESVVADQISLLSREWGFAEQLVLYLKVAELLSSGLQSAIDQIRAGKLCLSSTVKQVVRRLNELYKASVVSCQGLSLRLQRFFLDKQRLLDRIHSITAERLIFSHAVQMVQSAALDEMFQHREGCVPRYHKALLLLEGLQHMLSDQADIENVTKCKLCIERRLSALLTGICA
Nature of the assay: Inhibition of ULK1 (unknown origin) assessed as residual activity at 100 nM by KINOMEscan analysis relative to control.

Assay [11] relates to Epidermal growth factor receptor (Homo sapiens), P00533 [G719C]. Nature of the assay: Inhibition of EGFR G719C mutant (unknown origin) assessed as residual activity at 100 nM by KINOMEscan analysis relative to control.
Assay [12] has as its target Rho-associated protein kinase 2 (Homo sapiens) (UniProt O75116). Nature of the assay: Inhibition of ROCK2 (unknown origin) assessed as residual activity at 100 nM by KINOMEscan analysis relative to control.

Mitogen-activated protein kinase kinase kinase 14 (Homo sapiens), sequence (Q99558 whole entry, looked up): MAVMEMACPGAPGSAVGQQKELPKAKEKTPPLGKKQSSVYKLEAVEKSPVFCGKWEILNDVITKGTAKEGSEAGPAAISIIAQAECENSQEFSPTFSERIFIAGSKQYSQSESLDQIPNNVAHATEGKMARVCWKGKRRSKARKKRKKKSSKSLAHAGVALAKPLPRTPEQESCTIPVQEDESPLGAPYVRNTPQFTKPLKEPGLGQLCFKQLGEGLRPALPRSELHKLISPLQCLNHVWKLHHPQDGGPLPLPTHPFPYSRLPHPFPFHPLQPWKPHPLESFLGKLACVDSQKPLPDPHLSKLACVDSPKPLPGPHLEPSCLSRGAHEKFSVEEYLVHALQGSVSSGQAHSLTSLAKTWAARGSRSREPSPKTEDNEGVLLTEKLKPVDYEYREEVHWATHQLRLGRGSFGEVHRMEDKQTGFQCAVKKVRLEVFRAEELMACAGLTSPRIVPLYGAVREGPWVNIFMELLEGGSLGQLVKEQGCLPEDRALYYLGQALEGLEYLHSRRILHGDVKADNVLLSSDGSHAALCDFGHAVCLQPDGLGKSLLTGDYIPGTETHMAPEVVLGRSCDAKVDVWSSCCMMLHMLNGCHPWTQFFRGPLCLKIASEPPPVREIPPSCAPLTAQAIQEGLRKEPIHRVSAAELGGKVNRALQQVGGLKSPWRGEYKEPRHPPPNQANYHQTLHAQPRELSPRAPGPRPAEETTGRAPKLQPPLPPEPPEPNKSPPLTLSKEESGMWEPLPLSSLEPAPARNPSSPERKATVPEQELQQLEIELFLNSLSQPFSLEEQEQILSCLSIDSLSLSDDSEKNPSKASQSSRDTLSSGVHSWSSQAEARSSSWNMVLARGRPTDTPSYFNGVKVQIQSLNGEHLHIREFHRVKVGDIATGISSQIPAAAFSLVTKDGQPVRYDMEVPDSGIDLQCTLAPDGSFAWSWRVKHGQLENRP
Serine/threonine-protein kinase PLK1 (Homo sapiens), sequence (P53350 whole entry): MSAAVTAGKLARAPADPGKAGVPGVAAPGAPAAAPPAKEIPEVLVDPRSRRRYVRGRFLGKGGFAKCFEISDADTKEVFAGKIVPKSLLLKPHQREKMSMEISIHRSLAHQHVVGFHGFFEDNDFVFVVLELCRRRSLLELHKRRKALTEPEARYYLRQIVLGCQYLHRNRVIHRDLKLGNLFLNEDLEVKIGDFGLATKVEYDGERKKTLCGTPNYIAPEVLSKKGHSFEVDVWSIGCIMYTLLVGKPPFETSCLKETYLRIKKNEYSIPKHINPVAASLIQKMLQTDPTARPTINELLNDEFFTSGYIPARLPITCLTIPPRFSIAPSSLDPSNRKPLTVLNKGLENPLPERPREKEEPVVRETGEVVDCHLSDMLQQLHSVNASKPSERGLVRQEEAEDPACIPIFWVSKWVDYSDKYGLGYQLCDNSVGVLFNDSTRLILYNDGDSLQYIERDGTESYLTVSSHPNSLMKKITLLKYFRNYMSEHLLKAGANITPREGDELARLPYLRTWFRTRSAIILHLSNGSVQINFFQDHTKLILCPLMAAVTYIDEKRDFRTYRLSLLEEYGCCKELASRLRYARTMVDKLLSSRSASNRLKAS

On to `COc1cc2ncnc(N[C@H](C)c3cccc4ccccc34)c2cc1OC`, for which the Activity in assay [1] turned out to be 70%; in [2], 81%; in assay [3], 88%; in assay [4], 99%; in assay [5], 85%; in assay [6] it was 40%. In addition, the Activity in assay [7] was found to be 92%; in [8], 75%; in assay [9], 94%; in assay [10], 96%; in [11], 89%; in assay [12], 87%.
